Results published in doi:10.1101/2021.10.07.463234v2 (biorxiv, 2021).
Where a name gives a salt, the structure may show the parent alone. Numbered stars: 1 amine (or outer) side, 2 acyl side, 3 side chain; on linkers, the order of the positions; unused ones are H or OH. Bridge positions count the residues as written; N and C are the ends. Square brackets hold non-standard residues; d marks the D form. Peptide text beside a SMILES is read from it. * marks the point of attachment. hTyr(3S-OH,4S-OH,3'-OSO3H) = N[C@H](C(=O)O)[C@H](O)[C@@H](O)c1ccc(O)c(OS(=O)(=O)O)c1; Orn(4R-OH,5R-OH) = O=C([C@H](C[C@@H](O)[C@@H](O)N[*:3])N[*:1])[*:2]; Pro(3S-OH,4S-Me) = C[C@H]1CN[C@H](C(=O)O)[C@H]1O; X1 = CCCCCOc1ccc(-c2cc(-c3ccc(C(=O)*)cc3)no2)cc1; Gln(3R-OH) = NC(=O)C[C@@H](O)[C@H](N)C(=O)O; Hyp = O=C(O)[C@@H]1C[C@@H](O)CN1

Molecular target: SARS-CoV-2 Mac1 (Severe acute respiratory syndrome coronavirus 2, UniProt P0DTD1)
Experiment: biochemical
Conditions: for inhibition at 100 µM: read-out: %inhibition; for %inhibition: 100 µM, inhibitor

SMILES	inhibition at 100 µM	%inhibition
O=C1C(O)=C([C@H]2CC[C@H](c3ccc(Cl)cc3)CC2)C(=O)c2ccccc21 [Atovaquone]	23.4%	
NC(=O)c1cccnc1 [Nicotinamide (Vitamin B3)]	16%	
Cc1ncc(COP(=O)(O)O)c(C=O)c1O [Pyridoxal phosphate]	0%	
NC(=O)CC[C@H](N)C(=O)O [L-Glutamine]	0%	
CN1CCN(c2cc3c(cc2F)c(=O)c(C(=O)O)cn3-c2ccc(F)cc2)CC1 [Difloxacin HCl]	2.61%	
CN(CCOc1ccc(CC2SC(=O)NC2=O)cc1)c1ccccn1 (centres unmarked) [Rosiglitazone HCl]		0%
CC(C)(CO)[C@@H](O)C(=O)NCCCO [D panthenol]	0%	
COC(=O)C1=C(C)NC(C)=C(C(=O)OC)C1c1ccccc1[N+](=O)[O-] [Nifedipine]	16%	
CCCN[C@H]1CCc2nc(N)sc2C1 [Pramipexole 2HCl Monohydrate]		5.796%
Nc1cccc2c1C(=O)N(C1CCC(=O)NC1=O)C2=O (centres unmarked) [Pomalidomide]	0%	
COC1=CC(=O)C[C@@H](C)[C@]12Oc1c(Cl)c(OC)cc(OC)c1C2=O [Griseofulvin]	0%	
CC[C@@H]([C@H](C)O)n1ncn(-c2ccc(N3CCN(c4ccc(OC[C@@H]5CO[C@@](Cn6cncn6)(c6ccc(F)cc6F)C5)cc4)CC3)cc2)c1=O [Posaconazole]	37.1%	
CN(C)CC/C=C1/c2ccccc2Sc2ccc(Cl)cc21 [Chlorprothixene]		13.67%
CCC[C@H](NC(=O)[C@@H]1[C@H]2CCC[C@H]2CN1C(=O)[C@@H](NC(=O)[C@@H](NC(=O)c1cnccn1)C1CCCCC1)C(C)(C)C)C(=O)C(=O)NC1CC1 [Telaprevir (VX-950)]		0%
C[C@@H](O[C@H]1OCCN(Cc2n[nH]c(=O)[nH]2)[C@H]1c1ccc(F)cc1)c1cc(C(F)(F)F)cc(C(F)(F)F)c1 [Aprepitant]	10.1%	
C[N+](C)(C)CC(O)CC(=O)[O-] (racemic) [DL-Carnitine HCl]	0%	
CCOc1nc2cccc(C(=O)O)c2n1Cc1ccc(-c2ccccc2-c2noc(=O)[nH]2)cc1 [Azilsartan]	16.1%	
CC(C)Cc1ccc(C(C)C(=O)O)cc1 (centres unmarked) [Ibuprofen]	0%	
CC[C@H]1OC(=O)C[C@@H](O)[C@H](C)[C@@H](O[C@@H]2O[C@H](C)[C@@H](O)[C@H](N(C)C)[C@H]2O)[C@@H](CCN2C[C@H](C)C[C@H](C)C2)C[C@@H](C)C(=O)/C=C/C(C)=C/[C@@H]1CO[C@@H]1O[C@H](C)[C@@H](O)[C@@H](OC)[C@H]1OC [Tilmicosin phosphate]		0%
O=C(O)c1ccccc1O [Sodium salicylate]		0%
CCCS(=O)(=O)Nc1ccc(F)c(C(=O)c2c[nH]c3ncc(-c4ccc(Cl)cc4)cc23)c1F [Vemurafenib (PLX4032, RG7204)]	2.37%	
CCCCN1CCCCC1C(=O)Nc1c(C)cccc1C (centres unmarked) [Bupivacaine HCl]	0%	
NC(=O)CN1CC(O)CC1=O (centres unmarked) [Oxiracetam]	21.6%	
Nc1nc(N)c2nc(-c3ccccc3)c(N)nc2n1 [Triamterene]	4.22%	

SMILES	inhibition at 100 µM	%inhibition
N[C@@H]1CN(c2c(F)cc3c(=O)c(C(=O)O)cn([C@@H]4C[C@@H]4F)c3c2Cl)CC12CC2 [Sitafloxacin Hydrate]	5.2%	
C=C1/C(=C\C=C2/CCC[C@]3(C)[C@@H]([C@H](C)CCCC(C)C)CC[C@@H]23)C[C@@H](O)C[C@@H]1O [Alfacalcidol]	0%	
CCOc1nc2cccc(C(=O)O)c2n1Cc1ccc(-c2ccccc2-c2nnn[nH]2)cc1 [Candesartan]	0%	
CCCC(=O)Nc1ncnc2c1ncn2[C@@H]1O[C@@H]2COP(=O)(O)O[C@H]2[C@H]1OC(=O)CCC [Dibutyryl-cAMP (Bucladesine)]	4.86%	
Cc1ccc(/C(=C\CN2CCCC2)c2ccccn2)cc1 [Triprolidine Hydrochloride]	2.14%	
CCCC(CCC)C(=O)O [Valproic acid]		0%
CC1=C(C(=O)O)N2C(=O)[C@@H](NC(=O)[C@H](N)C3=CCC=CC3)[C@H]2SC1 [Cefradine]		0.656%
CO/N=C(\C(=O)N[C@@H]1C(=O)N2C(C(=O)O)=C(CSc3nc(=O)c(O)nn3C)CS[C@H]12)c1csc(N)n1 [Ceftriaxone Sodium]		17.28%
N[C@@H](CSCCCO)C(=O)O [Fudosteine]	0%	
OC[C@@H](O)[C@@H](O[C@@H]1O[C@H](CO)[C@H](O)[C@H](O)[C@H]1O)[C@H](O)[C@@H](O)CO [Lactitol]		5.8%
CNS(=O)(=O)C[C@H]1CC[C@H](N(C)c2[nH]cnc3nccc2-3)CC1 [Oclacitinib?maleate]	0%	
C[C@@H]1CCO[C@H]2Cn3cc(C(=O)NCc4ccc(F)cc4F)c(=O)c(O)c3C(=O)N12 [Dolutegravir (GSK1349572)]	9.9%	
Nc1nc(NC2CC2)c2ncn([C@H]3C=C[C@@H](CO)C3)c2n1 [Abacavir sulfate]	0%	
Cc1ccccc1C(=O)Nc1ccc(C(=O)N2CCCC(N(C)C)c3ccccc32)cc1 (centres unmarked) [Mozavaptan]	21.9%	
CC(C)OC(=O)C(C)(C)Oc1ccc(C(=O)c2ccc(Cl)cc2)cc1 [Fenofibrate]	28.9%	
CC[C@@H]1/C=C(\C)C[C@H](C)C[C@H](OC)[C@H]2O[C@@](O)(C(=O)C(=O)N3CCCC[C@H]3C(=O)O[C@H](/C(C)=C/[C@@H]3CC[C@H](Cl)[C@H](OC)C3)[C@H](C)[C@@H](O)CC1=O)[C@H](C)C[C@@H]2OC [Pimecrolimus]	25.5%	
CNCC[C@H](Oc1cccc2ccccc12)c1cccs1 [Duloxetine HCl]		0%
O=C(O)Cc1ccccc1Nc1c(Cl)cccc1Cl [Diclofenac Potassium]		7.108%
Cc1cccc(-c2nn3c(c2-c2ccnc4ccc(C(N)=O)cc24)CCC3)n1 [Galunisertib (LY2157299)]	0%	
CN1CCN(c2c(F)cc3c(=O)c(C(=O)O)cn4c3c2OCN4C)CC1 [Marbofloxacin]	18.3%	
Nc1c(CC(=O)O)cccc1C(=O)c1ccccc1 [Amfenac Sodium Monohydrate]	4.46%	
CCN(CC)CCCC(C)Nc1ccnc2cc(Cl)ccc12 (centres unmarked) [Chloroquine Phosphate]		4.168%
O=[N+]([O-])c1ccc(O)c2ncccc12 [Nitroxoline]	0%	
NCCS(=O)(=O)O [Taurine]	0%	

SMILES	inhibition at 100 µM	%inhibition
N=C(N)N/N=C/c1c(Cl)cccc1Cl [Guanabenz Acetate]	0%	
CCNC(=O)[C@@H]1CCCN1C(=O)[C@H](CCCNC(=N)N)NC(=O)[C@H](CC(C)C)NC(=O)[C@@H](CC(C)C)NC(=O)[C@H](Cc1ccc(O)cc1)NC(=O)[C@H](CO)NC(=O)[C@H](Cc1c[nH]c2ccccc12)NC(=O)[C@H](Cc1c[nH]cn1)NC(=O)[C@@H]1CCC(=O)N1 [Leuprorelin Acetate]		6.662%
C[C@]1(COc2ccc(N3CCC(Oc4ccc(OC(F)(F)F)cc4)CC3)cc2)Cn2cc([N+](=O)[O-])nc2O1 [Delamanid]	22.1%	
NCCCNCCSP(=O)(O)O [Amifostine]	0%	
CC(C[N+](C)(C)C)OC(N)=O (centres unmarked) [Bethanechol chloride]	0%	
C[C@@H](O)[C@H]1C(=O)N2C(C(=O)[O-])=C(SC3Cn4cnc[n+]4C3)[C@H](C)[C@H]12 (some centres unmarked) [Biapenem]	5.82%	
COc1ccc(NC(=O)c2ccc(C(=N)N(C)C)cc2)c(C(=O)Nc2ccc(Cl)cn2)c1 [Betrixaban maleate]		3.06%
CCCCCOc1ccc(-c2cc(-c3ccc(C(=O)N[C@H]4C[C@@H](O)[C@@H](O)NC(=O)[C@@H]5[C@@H](O)[C@@H](C)CN5C(=O)[C@H]([C@H](O)CC(N)=O)NC(=O)[C@H]([C@H](O)[C@@H](O)c5ccc(O)c(OS(=O)(=O)O)c5)NC(=O)[C@@H]5C[C@@H](O)CN5C(=O)[C@H]([C@@H](C)O)NC4=O)cc3)no2)cc1 [Micafungin Sodium] (X1-[Orn(4R-OH,5R-OH)]T[Hyp][hTyr(3S-OH,4S-OH,3'-OSO3H)][Gln(3R-OH)][Pro(3S-OH,4S-Me)]; lactam 1-C)	0%	
CNC[C@H](O)c1ccc(O)c(O)c1 [Epinephrine bitartrate]	10.7%	
CC(C)OC(=O)CCC/C=C\C[C@@H]1[C@@H](CC[C@@H](O)CCc2ccccc2)[C@H](O)C[C@@H]1O [Latanoprost]	23.8%	
Cc1cc(C(C#N)c2ccc(Cl)cc2)c(Cl)cc1NC(=O)c1cc(I)cc(I)c1O (centres unmarked) [Closantel]		12.2%
CC(C)(C)CC(C)(C)c1ccc(O)c(Cc2ccc(Cl)cc2Cl)c1 [Clofoctol]	0%	
CC(=O)O[C@]1(C(C)=O)CC[C@H]2[C@@H]3C[C@H](C)C4=CC(=O)C=C[C@]4(C)[C@@]3(F)[C@@H](O)C[C@@]21C [Fluorometholone Acetate]	22.8%	
C[C@@H](NCCCc1cccc(C(F)(F)F)c1)c1cccc2ccccc12 [Cinacalcet HCl]	4.38%	
N#CC(c1ccc(Cl)cc1)c1c(Cl)cc(-n2ncc(=O)[nH]c2=O)cc1Cl (centres unmarked) [Diclazuril]	0%	
CN1c2ccccc2C(NCCCCCCC(=O)O)c2ccc(Cl)cc2S1(=O)=O (centres unmarked) [Tianeptine sodium]		0%
C[C@@H]1CC[C@H]2[C@@H](C)C(=O)O[C@@H]3O[C@@]4(C)CC[C@@H]1[C@]32OO4 [Artemisinin]	10.9%	
CCC1(c2ccccc2)C(=O)NCNC1=O [Primidone]	7.21%	
C=C1CCN([C@H](C)[C@](O)(Cn2cncn2)c2ccc(F)cc2F)CC1 [Efinaconazole]	2.14%	
C[C@]12CCC(=O)C=C1[C@@H]1C[C@@H]1[C@H]1[C@@H]3[C@@H]4C[C@@H]4[C@@]4(CCC(=O)O4)[C@@]3(C)CC[C@@H]12 [Drospirenone]	0%	
COc1cc(OC)c(C(=O)CCCN2CCCC2)c(OC)c1 [Buflomedil HCl]	0%	
Nc1ccc2cc3ccc(N)cc3nc2c1 [Proflavine Hemisulfate]	0%	
O=C(O)CCCCCCCC(=O)O [Azelaic acid]	0%	
